Source: patent publication US20230048349A1, “RECIRCULATING AQUACULTURE SYSTEM AND METHODS THEREOF” (THE TEXAS A&M UNIVERSITY SYSTEM, priority 2021, published 2023)
≈ marks a conversion by molar mass, not a printed value.

Tests used:
[1] = system: Vibrio-challenged Artemia; experiment: Artemia pathogen challenge test (Example 17); format: in vivo, Artemia franciscana; conditions: after three days; supplement 1 g/L; V. campbellii 10^8 cells/ml
Protocol: The pathogen challenge tests were designed to determine the effects of individual supplements on the survival of Vibrio-challenged Artemia. The pathogen challenge tests were conducted as described in the starvation tests, except that Artemia cultures (one day old) with each of the abovementioned supplements (1 g/L) were exposed to a lethal dose (10^8 cells/ml) of live V. campbellii as determined previously. In all treatments, 250 mg/L of yeast was added initially as a feed. Unchallenged and Vibrio-challenged Artemia were used as negative and positive controls, respectively. The survival of Artemia was monitored daily for three days.

S. agalactiae = experiment: Growth inhibition test of SCFAs and MCFAs (Example 15); format: cell-based, Streptococcus agalactiae; conditions: Streptococcus agalactiae; S. agalactiae
Protocol: (§1) Growth Inhibition Tests: Antipathogenic Properties of SCFAs and MCFAs. Growth inhibition tests to measure optical density (OD600) and calculate % inhibition efficiencies, minimum, and median inhibitory concentrations (MIC and IC50) were conducted as described previously. […] The PHA intermediates (SCFAs and MCFAs) are water-soluble, representing the PHA degradation products in the gastrointestinal tract of aquatic animals, allowing to assess the antipathogenic efficacy of PHA under the best scenario. The culture tubes were incubated at 30° C. under 150 rpm. The growths of tested strains in the absence of PHA intermediates were used as controls.

[2] = system: V. campbellii and A. hydrophila; experiment: Growth inhibition test of SCFAs and MCFAs, ranges over two G− pathogens (Example 15); format: cell-based, Vibrio campbellii; Aeromonas hydrophila; conditions: range over V. campbellii and A. hydrophila; LB pH 6
Protocol: as §1

Escherichia coli = experiment: Growth inhibition test in liquid medium (OD600); format: cell-based; conditions: Escherichia coli, E. coli
Protocol: (§2) These compounds were used to assess the antimicrobial efficacy of PHB and chitosan under the best scenario. Various concentrations of PHB intermediates (5-125 mM), COS (0.2-3 mM), or mixtures of 3-HB+COS (i.e., Mixture 1 (4 mM 3-HB+0.1 mM COS), Mixture 2 (12 mM 3-HB+0.3 mM COS), Mixture 3 (24 mM 3-HB+0.6 mM COS), and Mixture 4 (60 mM 3-HB+1.5 mM COS)) were used based on previously in vitro antimicrobial studies using PHB or chitosan. For S. agalactiae and RHA1, tryptic soy broth (TSB) and Reasoner's 2A (R2A) media were used, respectively. The pH of all growth mediums (i.e., LB, TSB, or R2A) was adjusted to 6.0 based on the typical pH value found in aquatic animals' gut and the optimized antimicrobial activity of PHB. The culture tubes were inoculated with 2% v/v of the pre-grown strains (optical density (OD600) of 1.0) and incubated at 30° C. under 150 rpm. The bacterial growth was determined by absorbance at OD600. The growth of tested strains in the absence of PHB or chitosan intermediates were used as controls. The inhibition efficiency (%) was calculated using Eq. (1): […]
(§3) where ODcontrol and ODsample refer to the highest optical densities of the growth curves for the controls and samples, respectively.

Streptococcus agalactiae = experiment: Growth inhibition test in liquid medium (OD600); format: cell-based; conditions: Streptococcus agalactiae, S. agalactide
Protocol: as §2, §3

Rhodococcus jostii RHA1 = experiment: Growth inhibition test in liquid medium (OD600); format: cell-based; conditions: R. jostii RHA1
Protocol: as §2, §3

Bacillus megaterium = experiment: Growth inhibition test in liquid medium (OD600); format: cell-based; conditions: Priestia megaterium, B. megaterium
Protocol: as §2, §3

Vibrio campbellii = experiment: Growth inhibition test in liquid medium (OD600); format: cell-based; conditions: Vibrio campbellii
Protocol: as §2, §3

Aeromonas hydrophila = experiment: Growth inhibition test in liquid medium (OD600); format: cell-based; conditions: Aeromonas hydrophila, A. hydrophila
Protocol: as §2, §3

[3] = system: V. campbellii and A. hydrophila; experiment: Growth inhibition test, ranges stated over two G− pathogens (Example 8); format: cell-based, Vibrio campbellii; Aeromonas hydrophila; conditions: range over V. campbellii and A. hydrophila
Protocol: as §2, §3

[4] = 5 mM, read-out: Inhibition Efficiency (%)
[5] = 25 mM, read-out: Inhibition Efficiency (%)
[6] = 50 mM, read-out: Inhibition Efficiency (%)
[7] = 125 mM, read-out: Inhibition Efficiency (%)
[8] = read-out: Inhibition Efficiency (%)

For `CCCC(=O)O` [Butyrate, butyrate], which “survival of Vibrio-challenged Artemia” value [1] is on record?
Its value is 10%.

What about the IC50 (S. agalactiae) of the same compound?
The IC50 was 57.5 mM.

What about the IC50 [2] of the same compound?
Its IC50 is 8.97 to 30.9 mM.

And the inhibition at 5000 µM (Escherichia coli; [4])?
The inhibition at 5000 µM was 5 ± 0.89%.

What about the inhibition at 25000 µM (Escherichia coli; [5]) of the same compound?
The inhibition at 25000 µM was 10.7 ± 12%.

What about the inhibition at 50000 µM (Escherichia coli; [6]) of the same compound?
The inhibition at 50000 µM was 23 ± 6.24%.

And the inhibition at 125000 µM (Escherichia coli; [7])?
The inhibition at 125000 µM was 71.1 ± 8.25%.

And the IC50 (Escherichia coli; 4-parameter logistic fit)?
Its IC50 is 61.2 mM.

And the inhibition at 5000 µM (Streptococcus agalactiae; [4])?
The inhibition at 5000 µM was 0.75 ± 0.01%.

What about the inhibition at 25000 µM (Streptococcus agalactiae; [5]) of the same compound?
Its inhibition at 25000 µM is 0.43 ± 0.15%.

And the inhibition at 50000 µM (Streptococcus agalactiae; [6])?
The inhibition at 50000 µM was 10.2 ± 1.83%.

And the inhibition at 125000 µM (Streptococcus agalactiae; [7])?
The inhibition at 125000 µM was 100%.

And the IC50 (Streptococcus agalactiae; 4-parameter logistic fit)?
Its IC50 is 83.4 mM.

And the IC50 (Rhodococcus jostii RHA1; 4-parameter logistic fit)?
The IC50 was “N.I”.

And the MIC (Rhodococcus jostii RHA1; pH 6.0, 30° C.)?
Its MIC is “N.I”.

What about the inhibition at 5000 µM (Rhodococcus jostii RHA1; Rhodococcus jostii, 5 mM, read-out: Inhibition Efficiency (%)) of the same compound?
The inhibition at 5000 µM was -25.2 ± 4.93%.

What about the inhibition at 25000 µM (Rhodococcus jostii RHA1; Rhodococcus jostii, 25 mM, read-out: Inhibition Efficiency (%)) of the same compound?
The inhibition at 25000 µM was -70.8 ± 2.65%.

And the inhibition at 50000 µM (Rhodococcus jostii RHA1; Rhodococcus jostii, 50 mM, read-out: Inhibition Efficiency (%))?
The inhibition at 50000 µM was -92.2 ± 21.6%.

What about the inhibition at 125000 µM (Rhodococcus jostii RHA1; Rhodococcus jostii, 125 mM, read-out: Inhibition Efficiency (%)) of the same compound?
The inhibition at 125000 µM was 100%.

And the inhibition at 5000 µM (Bacillus megaterium; [4])?
Its inhibition at 5000 µM is -5.8 ± 1.74%.

And the inhibition at 25000 µM (Bacillus megaterium; [5])?
Its inhibition at 25000 µM is 15.5 ± 1.56%.

What about the inhibition at 50000 µM (Bacillus megaterium; [6]) of the same compound?
The inhibition at 50000 µM was 100%.

And the inhibition at 125000 µM (Bacillus megaterium; [7])?
The inhibition at 125000 µM was 100%.

And the IC50 (Bacillus megaterium; 4-parameter logistic fit, read-out: IC50)?
The IC50 was 26.2 mM.

And the MIC (Bacillus megaterium; pH 6.0, 30° C., read-out: MIC)?
The MIC was 53 mM (≈ 4670 µg/mL).

What about the IC50 (Vibrio campbellii) of the same compound?
Its IC50 is 3.82 mM.

And the MIC (Vibrio campbellii; pH 6)?
Its MIC is 25.7 mM (≈ 2260 µg/mL).

What about the inhibition at 5000 µM (Vibrio campbellii; [8]) of the same compound?
Its inhibition at 5000 µM is 9.14 ± 8.9%.

What about the inhibition at 25000 µM (Vibrio campbellii; [8]) of the same compound?
Its inhibition at 25000 µM is 100%.

And the inhibition at 50000 µM (Vibrio campbellii; [8])?
The inhibition at 50000 µM was 100%.

What about the inhibition at 125000 µM (Vibrio campbellii; [8]) of the same compound?
Its inhibition at 125000 µM is 100%.

And the inhibition at 5000 µM (Aeromonas hydrophila; [4])?
The inhibition at 5000 µM was 0.8 ± 0.22%.

And the inhibition at 25000 µM (Aeromonas hydrophila; [5])?
Its inhibition at 25000 µM is 12.7 ± 1.8%.

And the inhibition at 50000 µM (Aeromonas hydrophila; [6])?
Its inhibition at 50000 µM is 72.4 ± 5.4%.

What about the inhibition at 125000 µM (Aeromonas hydrophila; [7]) of the same compound?
Its inhibition at 125000 µM is 100%.

And the IC50 (Aeromonas hydrophila; 4-parameter logistic fit)?
Its IC50 is 39.7 mM.

What about the IC50 [3] of the same compound?
The IC50 was 5.8 to 39.7 mM.
